We go through 5 compounds from PMC10141580, “Cyclic Dichalcogenides Extend the Reach of Bioreductive Prodrugs to Harness Thiol/Disulfide Oxidoreductases: Applications to seco-Duocarmycins Targeting the Thioredoxin System” (ACS Central Science, 2023).

For data set [1], the system named is mouse. Nature of the data set: Tolerability for repeated dose administration in vivo (summary). The settings on record: for remarks: repeated dose administration; for well-tolerated dose: weekly or twice-weekly administration.
Data set [2] concerns A549 cells. As to the kind of experiment: Resazurin cytotoxicity assay, A549, 72 h. The settings on record: read-out: IC50(nM): A549. For orientation: The colour change of resazurin is a common sign of viable cells or microbes.
Method: (§1) We used A549 lung cancer and HeLa cervical cancer cell lines for initial screening of the prodrugs.
Fi gure S9: Cell ular resazurin-based cytotoxi ci ty as s a y.
Dose -response curves were calculated from at least 27 incremental single concentrations over a range
of at least three log units. Individual experiments with annotated experiment numbers are shown for each prodrug
Data set [3] deals with HeLa-HRE cells. As to the kind of experiment: Resazurin cytotoxicity assay, HeLa-HRE, 48 h. The note with it: for IC50(HeLa)/IC50(A549): ratio HeLa vs A549.
Method: as §1
HeLa-HRE cells were treated with prodrugs of the
Dose -response curves were calculated from at least 27 incremental single concentrations over a
range of at least three log units.
Data set [4] concerns MEF TrxR1-ko cells. As to the kind of experiment: Resazurin cytotoxicity assay, MEF TrxR1 knockout, 72 h. The note with it: MEF TrxR1-ko vs wt (fl/fl).
From the text: A TrxR1 knockout (ko) in mouse embryonic fibroblast (MEF) cells is, however, accessible. We compared its prodrug sensitivity to that of its parental line[49] (wild-type, wt), on the basis that TrxR1-ko should leave most Trx1 in its oxidized state (only a fraction of it can be maintained in the reduced state by alternative reductants such as Grx2),[50] so prodrugs relying on the cytosolic thioredoxin system (Trx1/TrxR1) for most of their bioreductive activation in long-term assays will have lower potency in TrxR1-ko cells.
MEF cells (ko vs. wt) we r e treated with prodrugs of the CBI-TMI and CBI-AZI series for
72 h at concentrations from 10 pm t o 3 0 µM at 27 incremental single concentrations depending on expected
potencies of the constructs. Data from at least 3 individual experiments was combined (no error bars shown for
clarity) for each cell line.
[5] abbreviates: read-out: IC50(nM): HeLa, HeLa, 48 h.

Where two headings read alike, the source gives them in different places.

The term IC50 denotes the concentration that gives 50% inhibition. For `COc1cc2cc(C(=O)N3CC(CCl)c4c3cc(OC(=O)N3CCN(C)C5CSSCC53)c3ccccc43)[nH]c2c(OC)c1OC` (mixture of isomers) [Me-SS66C-CBI-TMI], in data set [1], the remarks entry is listed as “well tolerated” and the “well-tolerated dose” value was 3 mg/kg. For the same compound, in data set [2], the IC50 worked out at 17 nM. In data set [3] (setting [5]), the IC50 amounted to 220 nM. In data set [4], the “fold change of potency wt → ko” value is listed as 4 ×.

In the case of `COc1cc2cc(C(=O)N3CC(CCl)c4c3cc(OC(=O)N3CCN(C)C5CSSCC53)c3ccccc43)[nH]c2c(OC)c1OC` (mixture of isomers) [Me-SS66T-CBI-TMI], the remarks result in data set [1] is recorded as “well tolerated”. In data set [1], the “well-tolerated dose” value came to 3 mg/kg. For the same compound, the IC50 in data set [2] stood at 5.9 nM; in data set [3] (setting [5]), 59 nM. The “IC50(HeLa)/IC50(A549)” value in data set [3] is 10. For the same compound, the “fold change of potency wt → ko” value in data set [4] turned out to be 2 ×.

Regarding `COc1cc2cc(C(=O)N3C[C@@H](CCl)c4c3cc(OC(=O)N(CCC(=O)N3CCN(C)CC3)C3CCCCC3)c3ccccc43)[nH]c2c(OC)c1OC` [P-CC60-CBI-TMI], the remarks result in data set [1] is reported as “well tolerated”. Moreover, the “well-tolerated dose” value in data set [1] was 3 mg/kg. In addition, the concentration for half-maximal inhibition (IC50) in data set [2] is 1700 nM; in data set [3] (initial screening, A549 and HeLa cell lines), over 1000 nM; in data set [3] (setting [5]) it was 1250 nM. In addition, the “IC50(HeLa)/IC50(A549)” value in data set [3] worked out at 0.7.

With `COc1cc2cc(C(=O)N3C[C@@H](CCl)c4c3cc(OC(=O)N(CCC(=O)N3CCN(C)CC3)[C@H]3CCSSC3)c3ccccc43)[nH]c2c(OC)c1OC` [P-SS60-CBI-TMI], the remarks result in data set [1] is recorded as “well tolerated”. The “well-tolerated dose” value in data set [1] is 3 mg/kg. Also, the IC50 came to 180 nM in data set [2] and 420 nM in data set [3] (setting [5]). Further, in data set [3], the “IC50(HeLa)/IC50(A549)” value stood at 2.3.

Turning to `COc1cc2cc(C(=O)N3C[C@@H](CCl)c4c3cc(OC(=O)N3CCN(C(=O)CCC(=O)N5CCN(C)CC5)[C@H]5CSSC[C@H]53)c3ccccc43)[nH]c2c(OC)c1OC` [P-SS66C-CBI-TMI], in data set [1], the remarks entry was “well tolerated”. The “well-tolerated dose” value in data set [1] is reported as 3 mg/kg. Further, the IC50 in data set [2] (Homo sapiens) was determined as 12 nM; in data set [3] (Homo sapiens, HeLa, 48 h, read-out: IC50(nM): HeLa) it was 200 nM. Also, the “IC50(HeLa)/IC50(A549)” value in data set [3] came out at 17. Moreover, the “fold change of potency wt → ko” value in data set [4] worked out at 3 ×.
